Here are results for one compound from PMC8191789 (2021).

Experiment [1] has as its system Myc2345_T23 (DNA, G4) TGAGGGTGGGTAGGGTGGGTAA
Nature of the experiment: fluorescence competition (TAMRA quenching restored by unlabeled DNA). The conditions noted are these: K+ (25 mM potassium phosphate, 75 mM KCl); pH 7, 25°C; C50 is concentration of competing unlabeled DNA; 100 nM 3'-TAMRA-Myc2345_T23, PEQ 10:1.

For experiment [2] the test system is unchanged. Nature of the experiment: NMR solution structure. The conditions noted are these: K+ 10 mM (potassium phosphate); pH 6.5; PEQ:DNA 3:1; end-stacking on 5'- and 3'-tetrads.
Experiment [3] has the same test system. Nature of the experiment: CD melting (260 nm). The conditions noted are these: K+ 0.6 mM; potassium phosphate, pH 7; 5 μM DNA, 25 μM PEQ.
The test system of experiment [4] is Myc2345 (DNA, G4) TGAGGGTGGGTAGGGTGGGGAA
Nature of the experiment: NMR solution structure. Conditions: K+ 10 mM (potassium phosphate); pH 7.0; PEQ:DNA 3:1; end-stacking on 5'- and 3'-tetrads.

Experiment [5] has the same test system. Nature of the experiment: CD melting (260 nm). Conditions: K+ 0.6 mM; potassium phosphate, pH 7; 5 μM DNA, 25 μM PEQ.
Experiment [6] deals with 3'-TAMRA-labeled Myc2345_T23 (DNA, G4) TGAGGGTGGGTAGGGTGGGTAA
Nature of the experiment: TAMRA fluorescence quenching titration. The conditions noted are these: K+ (25 mM potassium phosphate, 75 mM KCl); pH 7, 25°C; 100 nM DNA.

The test system of experiment [7] is Myc2345 (DNA, G4) TGAGGGTGGGTAGGGTGGGGAA
Nature of the experiment: fluorescence competition (TAMRA quenching restored by unlabeled DNA). Conditions: K+ (25 mM potassium phosphate, 75 mM KCl); pH 7, 25°C; C50 is concentration of competing unlabeled DNA; 100 nM 3'-TAMRA-Myc2345_T23, PEQ 10:1.

Regarding `COc1cc(/C=C/c2cc(C(N)=O)c3ccccc3[n+]2C)ccc1O`, the C50 in experiment [1] was determined as 3.71 µM; in experiment [7], 4.86 µM. Also, the binding entry in experiment [2], in experiment [4] and in experiment [6] was “yes” each time. The values for the ΔTm in experiment [3] and in experiment [5] were 21.1 ± 1.3 °C and 20.1 ± 0.6 °C, respectively.
